Results on 1 compound are retold here after patent publication US20260364056A1, “METHODS OF TREATMENT OF NON-PANCREATIC GASTROINTESTINAL CANCERS” (IONCTURA bv, priority 2023, published 2026).

Holding throughout (assay type): cell-based
The test system of data set [1] is HLF cells. Kind of data set: Cell viability assay (crystal violet). The procedure: Human colorectal adenocarcinoma HT29 and Caco-2 cells, hepatocellular carcinoma HLE cells, cholangiocarcinoma RBE and KKU-M213 cells were purchased from the American […] Culture Collection (ATCC, Manassas, VA, USA). The hepatocellular carcinoma cell line HLF was purchased from JCRB Cell Bank (Japan). All cell lines were cultured in Dulbecco's Modified Eagle Medium (DMEM) supplemented with 10% foetal bovine serum (FBS), 1 mM pyruvate, 25 mM HEPES, 100 U/mL penicillin-streptomycin (all from Thermo Fisher Scientific, Waltham, MA, USA), and maintained in a humidified atmosphere at 37 °C containing 5% CO2. The medium was changed every three days. Oleoyl-LPA was purchased from Avanti Polar Lipids (Birmingham, AL).
Cells were seeded in 96-well plates at a density of 2000 cells/well in 10% FBS supplemented medium. After 24 h, medium was removed, the cells washed with PBS and cultured in the presence or absence of FBS and of different concentrations of Compound land LPA. After the time set for the experiment, the cells were fixed with a 4% PFA solution and stained with 0.02% crystal violet for 10 min. Subsequently the plates have been washed with water to remove excess dye. The cell-bound dye was redissolved in 1% SDS and the optical density was measured at λ=570 with a iMark™ Microplate Absorbance Reader (Bio-rad).
FIGS. 2A and 2B show the effect of Compound 1 on cell proliferation in the absence of FBS and in the presence of 10% FBS. […] Cells were grown in serum free culture medium or in presence of 10% FBS and incubated with increasing Compound 1 concentrations or with DMSO (control cells) for 24, 48 and 72 hours. After fixation, proliferation was assessed by crystal violet staining method. *P<0.05.
To evaluate the anti-proliferative/cytotoxic effects of Compound 1, six different cancer tumour cell lines were treated developed from cholangiocarcinoma (CCA), hepatocellular carcinoma (HCC) and colorectal cancer (CRC), with increasing concentration of the Compound 1 ranging from 10 μM up to 50 μM and at different times of incubation. […]

For data set [2], the system named is HLE cells. Kind of data set: Wound healing assay. As to conditions: Homo sapiens, serum-free, read-out: inhibition of cell migration. The method, then:
(§1) Cells were seeded in a 12-well plate in 10% FBS medium and grown to reach a 80-90% confluence. Then, a scratch was made on the cell monolayer by using a p200 pipette tip. The plate was washed with sterile PBS to remove the debris and on the outer bottom of the plate were created markings with a tip marker, used as reference points. Each cell line was incubated with medium without FBS and containing increasing concentrations of Compound 1 (1-3-9-12 μM). Images were acquired at 0, 24 and 48 h by using a confocal microscope Nikon Eclipse Ti2 in bright field microscope and analysed with image-J. Image-J software was used to measure the scratched area. Cell migratory ability of wound-healing was assessed using the following formula: [(wound area at 0 h)−(wound area at indicated time)]/(wound area at 0 h).
(§2) Images were taken at time 0, 24 h and 48 h and cell migration into the cell-free region (outlined) was quantified.
(§3) Tumor progression is characterized by an enhanced cell motility and invasiveness. To expand upon the knowledge of the effects of Compound 1 on HLE, KKU-m213 and HT-29 cells, their migratory activity was assessed when treated with Compound 1 by using both, a wound healing and a transwell migration assay. Cells were seeded in a 12-well plate and, when a confluent monolayer was reached, an artificial gap was generated between the cells using a pipette tip. […]

For data set [3], the system named is KKU-M213 cells. Kind of data set: Wound healing assay. The note with it: Homo sapiens, serum-free, respect to control, after 24 h and 48 h, p<0.05, read-out: reduction in wound closure. The procedure:
as §1, §2, §3

In data set [4] the test system is Intrahepatic cholangiocarcinoma cancer cells (patient-derived organoid cultures). Put plainly: Patient-derived organoid formation/growth. As to conditions: 3, 9 and 12 μm (so in the source), 14 days, compared to vehicle, P<0.001. The procedure:
To further explore the activity of Compound 1 on gastrointestinal cancer cells, the effectiveness on organoid formation was investigated. Intrahepatic cholangiocarcinoma cancer cells were isolated from tumour tissues, counted and embedded in 96-well plate with Matrigel. After 3D-model formation, three different concentrations of Compound 1 (3, 9 and 12 μm) were tested in these patient-derived organoid (PDO) cultures. […] Scale bars correspond to 50 μm, Data are presented as the mean±SD; ***P<0.001.

Molecules are shown by their SMILES.

For the compound `C[C@H](NC(=O)CCc1nc2cccnc2n1Cc1ccc(OC(F)(F)F)cc1)c1ccc(Cl)cc1` [Compound 1, N-[(S)-1-(4-chloro-phenyl)-ethyl]-3-[3-(4-trifluoromethoxy-benzyl)-3H-imidazo[4,5-b]pyridin-2-yl]-propionamide], the “effect on cell proliferation” value in data set [1] (1 μM up to 12 μM, 10% FBS, 24, 48 and 72 h) is on record as “generally the same as the control”. For the same compound, the “cytotoxic effect / inhibition of cell proliferation” value in data set [1] (3 to 12 μM, absence of FBS, evident after 48 h, stronger after 72 h) is listed as “significant (p<0.05) cytotoxic effect in a dose-dependent manner”. Moreover, the cytotoxic effect entry in data set [1] (30 to 50 μM, medium with 10% FBS) is “significant (p<0.05) cytotoxic effect”. For the same compound, the inhibition at 3 µM in data set [2] is 40%. Further, the inhibition at 9 µM in data set [3] is ~50%. Further, the organoid growth inhibition entry in data set [4] was “significant organoid growth inhibition”.
